Assay results published in patent US20220175722A1, “DEGRADERS OF FIBROBLAST GROWTH FACTOR RECEPTOR 2 (FGFR2)” (DANA-FARBER CANCER INSTITUTE, INC., priority 2019, published 2022).
Like-named read-outs stand apart in the source and are kept apart here.

Experiments:
FGFR2 = experiment: Rescue of degrader-induced FGFR2 degradation by pretreatment, immunoblot in Kato III cells; type: cell-based; details: for rescue of FGFR2 degradation induced by bispecific compound 6: pretreated 2 h (10 μM BGJ398, 10 μM control-1, 0.5 M Bortezomib, 1 μM MLN4924), then 0.1 M bispecific compound 6 for 4 h; for rescue of FGFR2 degradation induced by bispecific compound 20: pretreated 2 h (10 μM FIIN2, 10 M control-1, 0.5 M Bortezomib, 1 μM MLN4924), then 1 M bispecific compound 20 for 4 h
Procedure: Kato III cells were pretreated with 10 μM BGJ398 (the parental compound and known FGFR1/2/3 inhibitor; available from, e.g., MedChemExpress®, Cat. No. HY-13311, Monmouth Junction, N.J.), 10 μM control-1 (VHL ligand), 0.5 M Bortezomib (a proteasome inhibitor; available from, e.g., Millipore Sigma®, Cat. No. 179324-69-7, Burlington, Mass.), and 1 μM MLN4924 (a neddylation inhibitor; available from, e.g., MedChemExpress®, Cat. No. HY-70062, Monmouth Junction, N.J.), for 2 h, and then treated with 0.1 M bispecific compound 6 for 4 h. Cells were lysed and immunoblotted as described above with antibodies to FGFR2 and β-Actin.
Kato III cells were pretreated with 10 μM FIIN2 (the parental compound and known FGFR1/2/3/4 inhibitor; available from, e.g., Selleckchem, Cat. No. S7714, Houston, Tex.), 10 M control-1 (VHL ligand), 0.5 M Bortezomib (a proteasome inhibitor; available from, e.g., Millipore Sigma, Cat. No. 179324-69-7, Burlington, Mass.), and 1 μM MLN4924 (a neddylation inhibitor; available from, e.g., MedChemExpress, Cat. No. HY-70062, Monmouth Junction, N.J.), for 2 h, and then treated with 1 M bispecific compound 20 for 4 h. Cells were lysed and immunoblotted as described above with antibodies to FGFR2 and β-Actin.

CDK9 = target: T1, CDK9 (Homo sapiens, UniProt P50750); experiment: CDK9 degradation by immunoblot (positive control); type: cell-based; details: 16 hours
T1 construct: endogenous in cells; host or cells: Kato III; CCLP1; JHH7
T1 sequence (P50750 whole entry): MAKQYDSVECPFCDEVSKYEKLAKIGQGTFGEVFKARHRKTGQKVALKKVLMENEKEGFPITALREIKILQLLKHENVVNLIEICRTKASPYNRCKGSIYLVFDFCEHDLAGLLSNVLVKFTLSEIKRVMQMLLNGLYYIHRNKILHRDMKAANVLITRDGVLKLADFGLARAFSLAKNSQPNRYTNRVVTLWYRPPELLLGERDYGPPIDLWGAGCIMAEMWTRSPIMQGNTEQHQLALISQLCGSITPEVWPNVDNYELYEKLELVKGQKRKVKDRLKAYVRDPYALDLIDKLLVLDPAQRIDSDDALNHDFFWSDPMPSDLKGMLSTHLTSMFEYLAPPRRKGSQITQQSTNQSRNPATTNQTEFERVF
T1 sequence (O60563 whole entry partner): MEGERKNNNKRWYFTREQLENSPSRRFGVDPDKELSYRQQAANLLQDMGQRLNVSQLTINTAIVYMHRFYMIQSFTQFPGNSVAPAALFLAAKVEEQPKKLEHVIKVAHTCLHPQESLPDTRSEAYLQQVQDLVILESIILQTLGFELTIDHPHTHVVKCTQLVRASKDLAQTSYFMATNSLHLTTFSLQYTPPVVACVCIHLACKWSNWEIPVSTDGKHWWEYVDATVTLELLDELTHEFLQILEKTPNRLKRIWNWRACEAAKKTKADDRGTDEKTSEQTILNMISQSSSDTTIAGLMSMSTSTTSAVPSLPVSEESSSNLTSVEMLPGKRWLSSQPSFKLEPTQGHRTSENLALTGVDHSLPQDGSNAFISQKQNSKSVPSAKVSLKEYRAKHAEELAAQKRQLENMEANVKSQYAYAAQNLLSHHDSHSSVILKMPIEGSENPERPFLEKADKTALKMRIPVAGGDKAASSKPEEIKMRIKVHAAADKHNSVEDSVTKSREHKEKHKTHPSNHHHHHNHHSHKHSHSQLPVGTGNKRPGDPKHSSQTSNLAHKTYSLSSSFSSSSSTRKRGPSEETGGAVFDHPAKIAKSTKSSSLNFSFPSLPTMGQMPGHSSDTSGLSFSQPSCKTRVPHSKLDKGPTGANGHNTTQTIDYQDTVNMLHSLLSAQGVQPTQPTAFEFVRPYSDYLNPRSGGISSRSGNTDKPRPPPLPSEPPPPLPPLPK
Procedure: Kato III cells were treated with 0, 0.1, 1, or 10 M of bispecific compound 6 or 0.5 M THAL-SNS-032 (a known CDK9 degrader and positive control for CDK9 degradation; available from, e.g., MedChemExpress®, Cat. No. HY-10008, Monmouth Junction, N.J.) for 16 hours. Cells were then lysed in RIPA buffer (Millipore Sigma®) containing protease/phosphatase inhibitor cocktail (Roche®). The protein concentrations were measured by bicinchoninic acid assay (BCA) analysis (Pierce™). Equal amounts of protein were resolved by 4-12% Tris-Base gels (Invitrogen™), and then transferred to the Immuno-Blot PVDF membrane (Bio-Rad®), and immunoblotted with primary antibodies against FGFR2 (cell signaling), CDK9 (cell signaling) and […] (cell signaling), and then immunoblotted with IRDye®800-labeled goat anti-rabbit IgG and IRDye®800-labeled goat anti-mouse IgG (LI-COR®) secondary antibodies. The membranes were detected on Odyssey CLx system.
CCLP1 cells were treated with 0, 0.1, 1, or 10 M of bispecific compound 6 or 0.5 μM THAL-SNS-032 for 16 hours, and then lysed and immunoblotted with antibodies to FGFR1 (cell signaling), CDK9, and β-Actin.
JHH7 cells were treated with 0, 0.1, 1, or 10 M of bispecific compound 6 or 0.5 M THAL-SNS-032 for 16 hours, and then lysed and immunoblotted with antibodies to FGFR3 (cell signaling), FGFR4 (cell signaling), CDK9, and β-Actin.

Kato III cells = experiment: cells; details: 72 h
Procedure: (§1) Kato III cells were treated with bispecific compound 6 or BGJ398 at the indicated concentrations for 72 h. Cell viability was determined using Cell-Titer Glo (Promega™) according to the manufacturer's instructions. IC50 values (defined as the concentration of compound needed to reduce cell viability to 50% of the vehicle DMSO control) were estimated by using GraphPad Prism 7.0 (GraphPad Prism®).
Cell viability was determined using Cell-Titer Glo (Promega™) according to the manufacturer's instructions. IC50 values were estimated by using GraphPad Prism 7.0 (GraphPad Prism®).
as §1, with “6, bispecific compound 7” for “6”, “(Promega™),” for “(Promega™)”

[1] = tested on: FGFR alteration (fusions, amplifications, or point mutations); details: cited from earlier work
[2] = patients with advanced refractory ICC with an FGFR alteration

**Q.** Which “rescue of FGFR2 degradation induced by bispecific compound 6” value (“rescue … by bispecific compound 6” for short) (FGFR2) does the source give for `CC(=O)N[C@H](C(=O)N1C[C@H](O)C[C@H]1C(=O)N[C@@H](C)c1ccc(-c2scnc2C)cc1)C(C)(C)C` [control-1] here?
**A.** The value was “rescued the FGFR2 degradation”.

**Q.** What about the “rescue of FGFR2 degradation induced by bispecific compound 20” value (“rescue … by bispecific compound 20” below) (FGFR2) of the same molecule?
**A.** Its value is “rescued the FGFR2 degradation”.

**Q.** For `NS(=O)(=O)OC[C@@H]1C[C@@H](n2ccc3c(N[C@H]4CCc5ccccc54)ncnc32)C[C@@H]1O` [MLN4924], which “rescue … by bispecific compound 6” value (FGFR2) is on record?
**A.** The value was “rescued the FGFR2 degradation”.

**Q.** And the “rescue … by bispecific compound 20” value (FGFR2)?
**A.** Its value is “rescued the FGFR2 degradation”.

**Q.** Which results are given for `CC(C)C[C@H](NC(=O)[C@H](Cc1ccccc1)NC(=O)c1cnccn1)B(O)O` [Bortezomib]?
**A.** rescue of FGFR2 degradation induced by bispecific compound 6 (FGFR2): rescued the FGFR2 degradation; rescue of FGFR2 degradation induced by bispecific compound 20 (FGFR2): rescued the FGFR2 degradation

**Q.** Which results are given for `CC(C)(C)c1cnc(CSc2cnc(NC(=O)C3CCN(CC(=O)NCCOCCOCCOCCNc4cccc5c4C(=O)N(C4CCC(=O)NC4=O)C5=O)CC3)s2)o1` (stereo not drawn) [THAL-SNS-032]?
**A.** CDK9 degradation (CDK9; CCLP1 cells, 0.5 μM): induced CDK9 degradation; CDK9 degradation (CDK9; JHH7 cells, 0.5 µM): induces CDK9 degradation; CDK9 degradation (CDK9; Kato III cells, 0.5 µM): induced CDK9 degradation

**Q.** Which IC50 (Kato III cells; Homo sapiens, KATO III, read-out: IC50 (concentration needed to reduce cell viability to 50% of the vehicle DMSO control)) does the source give for `CCN1CCN(c2ccc(Nc3cc(N(C)C(=O)Nc4c(Cl)c(OC)cc(OC)c4Cl)ncn3)cc2)CC1` [BGJ398] here?
**A.** The IC50 was ~1 nM.

**Q.** And the anti-proliferation effect (Kato III cells; Kato III cells)?
**A.** Its anti-proliferation effect is “good anti-proliferation effect”.

**Q.** And the “disease control rate (DCR; partial responses+stable disease)” value ([1]; FGFR2 fusions only)?
**A.** The value was 83.3%.

**Q.** And the “overall response rate (ORR)” value ([1]; FGFR2 fusions only)?
**A.** Its value is 18.8%.

**Q.** What about the “Median progression free survival” value [1, 2] of the same molecule?
**A.** The value was 5,8 months.

**Q.** What about the “disease control rate (DCR; partial responses+stable disease)” value [1, 2] of the same molecule?
**A.** The value was 75.4%.

**Q.** What about the “overall response rate (ORR)” value [1, 2] of the same molecule?
**A.** Its value is 14.8%.

**Q.** And the “rescue … by bispecific compound 6” value (FGFR2)?
**A.** The value was “rescued the FGFR2 degradation”.

**Q.** With `C=CC(=O)Nc1ccc(CN2C(=O)N(c3cc(OC)cc(OC)c3)Cc3cnc(Nc4ccc(N5CCN(C)CC5)cc4)nc32)cc1` [FIIN2] as the molecule, how does the “rescue … by bispecific compound 20” value (FGFR2) read?
**A.** Its value is “rescued the FGFR2 degradation”.
